Patent US20250288509A1, “Composition for Promoting Photoprotection and Cutaneous Regeneration through Sequential Photonic Transfer (SPT)” (priority 2022, published 2025)

What was measured:
[1] = Spectrofluorimetric quantification of emission in hydroalcoholic standard solutions; format: physicochemical
Excerpt: (§1) For the in vitro validation of the Sequential Photonic Transfer (SPT) process, different molecules belonging to the groups of plant-derived compounds previously identified as potential targets have been selected. In particular, the selected molecules are morin and quercetin (flavonoids), cannabinol (CBN), cannabidiol (CBD), and cannabichromene (CBC) (cannabinoids), and chlorophyll A, which are fully representative examples of each target compound group. […] Flavonoids typically have absorption peaks around 260 and 380 nm, while cannabinoids have absorption peaks between 230 and 300 nm (FIG. 3A). […] For these compounds, their emission capacity at 460 nm (blue light) when excited by 280 and 320 nm light (UVB/A) and their emission capacity at 625 nm (red light) when excited by 460 nm light have been evaluated using spectrofluorimetry.
(§2) FIG. 3. […] Spectrofluorimetric quantification in hydroalcoholic standard solutions of emission at 460 nm (blue region of the electromagnetic spectrum) of different compounds after excitation at 280 or 320 nm (UVB/A) (C) and of emission at 625 nm (red region of the electromagnetic spectrum) after excitation at 460 nm (D) (Mn: Morin; Qc: Quercetin; CBD: cannabidiol; CBN: cannabinol; CBC: cannabichromene; Cl: chlorophyll A).

[2] = In vitro ROS production by colorimetric Nitro Blue Tetrazolium (NBT) oxidation in hydroalcoholic solution; conditions: excited with UV light (310 nm), FIG. 4
Excerpt: NBT is a specific molecular sensor for superoxide anion production, which is the first type of ROS produced during the reduction of molecular oxygen to generate water. In the presence of superoxide anion, NBT, a colorless molecule in its reduced state, oxidizes to form a chromophore with an absorption peak at 540 nm. The degree of oxidation, and therefore the absorbance at 540 nm, is directly proportional to ROS production. […] However, the combination of flavonoids/cannabinoids, chlorophyll A, and PpIX excited with UV light (310 nm) induces a potent and significant ROS production equivalent to that obtained by exciting PpIX with red light (FIG. 4).
FIG. 4. Quantification of in vitro ROS production measured as absorbance at 540 nm of Nitro Blue Tetrazolium (NBT) compound oxidized by […] production in hydroalcoholic solutions of different compound combinations under basal conditions or excited with UV (310 nm) or red (635 nm) light. Results are expressed as mean+/−standard deviation of three independent experiments. *, […]; ***, P≤0.01 (PpIX: Protoporphyrin IX; Mn: Morin; CBD: cannabidiol; Cl: chlorophyll A).

[3] = tested on: primary fibroblasts; assay: Summary of examples: UVB radiation of primary fibroblasts; format: cell-based; conditions: summary statement on the examples
[4] = Continuous absorption spectra of flavonoids, cannabinoids and chlorophylls; format: physicochemical; conditions: continuous absorption spectrum, FIG. 3A/3B
Excerpt: as §1, §2

SMILES | emission at 460 nm (blue light) ([1]; excited by 280 and 320 nm light (UVB/A), FIG. 3C) | emission at 625 nm (red light) ([1]; excited by 460 nm light (blue), FIG. 3D) | ROS production (NBT oxidation, absorbance at 540 nm) [2] | protection of cells from UVB radiation [3] | stimulation of proliferation and extracellular matrix protein synthesis [3] | absorption peaks [4]
C=Cc1c(C)c2cc3nc(c4c5[n-]c(cc6nc(cc1[n-]2)C(C)=C6CC)c(C)c5C(=O)[C@@H]4C(=O)OC)[C@@H](CCC(=O)OC/C=C(\C)CCC[C@H](C)CCC[C@H](C)CCCC(C)C)[C@@H]3C.[Mg+2] [chlorophyll A] | no emission of blue light | strong emission of red light | unable to induce significant NBT oxidation | neither capable of protecting against UVB radiation | nor stimulating cells in any way | around 450 nm
C=Cc1c(C)c2cc3nc(c4c5[n-]c(cc6nc(cc1[n-]2)C(C=O)=C6CC)c(C)c5C(=O)[C@@H]4C(=O)OC)[C@@H](CCC(=O)OC/C=C(\C)CCC[C@H](C)CCC[C@H](C)CCCC(C)C)[C@@H]3C.[Mg+2] [chlorophyll B] |  |  |  |  |  | around 450 nm
